Reference: patent US8703419B2, “Method for diagnosis/prognosis of cancers using an epigenetic marker consisting of a specific single CpG site in TTP promoter and treatment of cancers by regulating its epigenetic status” (Korea Research Institute of Bioscience and Biotechnology, priority 2009, dated 2014)

Legend:
Type in all cases: cell-based, human
[1] = system: TTP expression in PLC/PRF/5 and SK-Hep1 cells; assay: TGFβ1-mediated TTP induction with or without AzadC (RT-PCR)
Procedure: (§1) Total RNA was extracted from the HCC cell lines by using RNeasy mini kit (QIAGEN, USA). Distilled water was added to 1 μg of the total RNA and 1 μl of oligo-d(T) (Invitrogen, USA, 0.5 μg/μl) to make the total volume of the mixture 50 μl, followed by RT-PCR in AccuPower RT-premix (Bioneer, Korea). Before RT-PCR, cDNA was synthesized as follows: at 70° C. for 5 minutes, at 4° C. for 5 minutes, at 42° C. for 60 minutes, at 94° C. for 5 minutes, and at 4° C. for 5 minutes to produce cDNA. PCR was performed by using the obtained cDNA (3˜5 μl) or distilled water (negative control) as a template with the primer set as shown in Table 1 and PCR Master Mix (Promega, USA). PCR conditions were as follows: pre-denaturation at 95° C. for 5 minutes, denaturation at 95° C. for 45 seconds, annealing at 65° C. for […], polymerization at 72° C. for 45 seconds, 35 cycles from denaturation to polymerization, final extension at 72° C. for 5 minutes, and cooling at 4° C. The amplified product was quantified via standardization with β-actin.
TGFβ1 (R&D systems, USA) was treated thereto at the concentration of 5 μg/l for 0, 0.5, 1, 1.5, 3, 6, and 12 hours.

[2] = system: TTP promoter; assay: TTP promoter luciferase reporter assay; conditions: SK-Hep1 cells; no AzadC
Procedure: To confirm that TTP expression is directly controlled by methylation of the #2 CpG site, the present inventors examined the transcriptional activity of the TTP promoter region in relation to the methylation status of the #2 CpG site using luciferase reporter assays.
Luciferase assays were performed using the Promega Luciferase Assay System (Promega, USA), according to the manufacturer's protocol. Luciferase reporter constructs were generated by amplifying TTP promoter regions from normal human genomic DNA (BioChain, USA) using the primer sets shown in Table 5 according to the method of Example <1-2>.
As a result, wild-type promoter (WT), a single base-substituted promoter (C→T), and TRR-deleted promoter (Del) were constructed. These promoters were cloned into the KpnI/BglII sites of pGL3-basic vector (Promega, USA). Ligated products were amplified in E. coli. After purification, the ligated products were transfected into SK-Hep1 cells by using LipofectAMINE Plus reagent (Invitrogen). Specifically, the luciferase reporter constructs (0.25 μg) were co-transfected with a control plasmid (0.05 μg) encoding renilla into 1×10^5 cells/well in 12-well plates. At that time, AzadC was treated 12 hours before the transfection. After treating with TGFβ1, luciferase activities were measured using a luminometer (Berthold Lumat LB9501, Bad Wildbad, Germany). […]

[3] = system: RNAPII binding to the TTP locus; assay: ChIP analysis of RNAPII binding to the TTP locus; conditions: PLC/PRF/5 cells; regardless of AzadC treatment
Description: To establish the molecular mechanism of epigenetic regulation of TTP, the present inventors estimated the levels of different forms of phosphorylated RNAPII (RNA polymerase II) proteins bound to the TTP locus by ChIP (chromatin immunoprecipitation) analysis, i.e., unphosphorylated form (unP) as a measure of transcriptional initiation, and those phosphorylated at serine 5 (pS5) and serine 2 (pS2) of the carboxy-terminal repeat domain as a measure of promoter escape/capping and transcriptional elongation, respectively.
(§2) ChIP analysis was performed using a specific assay kit (Millipore, USA) according to manufacturer's specifications. SK-Hep1 and PLC/PRF/5 cells were pre-treated or not treated with AzadC for 72 hours, to which TGFβ1 was additionally treated or not treated. The cells were treated with formaldehyde, leading to the binding of DNA to the protein (DNA conjugated protein), followed by cell lysis. After DNA fractionation, the antibody to RNAPII protein shown in Table 7 was added thereto, followed by reaction at 4° C. for overnight. The antibody was isolated by adding 50 μl of Protein A/G PLUS-Agarose. At this time, the DNA specifically bound to the antibody was purified. The purified DNA proceeded to PCR using the primer sets of Table 8.

[4] = system: acetylation of histones H3 and H4 at TRR; assay: ChIP analysis of histone H3 and H4 acetylation at TRR; conditions: PLC/PRF/5 cells; regardless of AzadC pretreatment; P<0.05
Procedure: as §2
Chromatin is basically composed of histones and DNA. The histone status, that is, the methylation or acetylation status of histones is involved in the regulation of gene expression. Transcriptional activity is additionally dependent on the acetylation level of histones H3 and H4 in the promoter region. Moreover, TGFβ1-mediated transcription activation requires H3 acetylation (Ross S et al., EMBO J 25:4490-4502, 2006). Therefore, information about the transcriptional activity of the promoter region can be obtained by using the antibody against acetylated histone. […]

[5] = system: phospho-SMAD2/3 binding to TRR; assay: ChIP analysis of phosphorylated SMAD2/3 binding to TRR; conditions: both SK-Hep1 and PLC/PRF/5 cell lines
Procedure: as §2
The present inventors performed ChIP analysis using the antibodies shown in Table 9 in the same manner as described in Example <6-1> in order to investigate the bindings of phosphorylated SMAD2/3, transcription inhibitor, methyl DNA binding protein, and DNMT (DNA methyltransferase), which are important factors involved in TGFβ1 signal transduction, in TRR (a). At this time, input was a part of cell extract obtained after fixing the cells in formaldehyde and DNA fractionation, which is the status right before immunoprecipitation with antibody.

[6] = system: c-Myc mRNA; assay: c-Myc mRNA level after TGFβ1 (RT-PCR)
Procedure: as §1
SK-Hep1 and PLC/PRF/5 cells which had been pre-treated or not treated with AzadC for 72 hours were treated additionally with TGFβ1 for 0, 0.5, 1.0, 1.5, 2.0, and 2.5 hours. Then RT-PCR was performed with the cells by using the primer sets of Table 10 in the same manner as described in Example <1-2>.

[7] = system: SK-Hep1 and PLC/PRF/5 cells; assay: Cell growth by MTT assay and crystal violet staining; conditions: TGFβ1 96 hours
Procedure: (§3) MTT assay and crystal violet staining were performed with the cells. MTT (methylthiazoletetrazolium; Sigma-Aldrich) assay was performed by the informed technique (Mosmann T, J Immunol Methods 65:55-63, 1983) using μQuant Universal Microplate Spectrophotometer (Biotek Instruments, USA) at 570 nm. For crystal violet staining, the cells were fixed in 10% formaldehyde and stained in 10% crystal violet solution for 10 min at room temperature.

[8] = system: PLC/PRF/5 cells; assay: Cell cycle by FACS after TTP knock-down
Procedure: (§4) Lentiviral-based short hairpin RNAs (shRNAs) against TTP (Sigma-Aldrich; […] CTTTTT: SEQ. ID. NO. 40) or control shRNA targeting eGFP (Sigma-Aldrich) were transfected into PLC/PRF/5 cells and selected with 1 mg/l puromycin (Invitrogen). The selected PLC/PRF/5 transfectants were additionally treated with TGFβ1 for 0, 0.5, 1.0, 1.5, 2.0, and 2.5 hours. To investigate the half-life of c-Myc mRNA, actinomycin D was treated for 0, 15, 30, […], 60, and 75 minutes, and RT-PCR was performed with the cells.
FACS was performed with the cells treated in Example <7-4>.

[9] = system: c-Myc mRNA in PLC/PRF/5 cells; assay: c-Myc mRNA degradation and half-life after TTP knock-down (RT-PCR, actinomycin D)
Procedure: as §4

[10] = system: PLC/PRF/5 cells; assay: Cell growth after TTP knock-down (MTT, crystal violet staining)
Procedure: as §3, with “SK-Hep1 and PLC/PRF/5 cells were pre-treated or not treated with AzadC for 72 hours, to which TGFβ1 was additionally treated or not treated for 96 hours. MTT assay” for “MTT assay”
as §4
Western blotting was performed with the cells treated in Example <7-4> in the same manner as described in Example <7-2-1> to investigate the levels of c-Mycand p21^Cip1. MTT and crystal violet staining were also performed in the same manner as described in Example <7-2-2>.

[11] = PLC/PRF/5 cells (#2 CpG not methylated), TGFβ1 5 μg/l
[12] = PLC/PRF/5 cells, both before and after TGFβ1 treatment

Row | Substance | time of peak TTP expression after TGFβ1 treatment [1, 11] [h] | time to increase of TTP expression after TGFβ1 treatment [1, 11] [min] | induction of TTP expression ([1]; SK-Hep1 cells (high #2 CpG methylation), TGFβ1 alone 5 μg/l) | responsiveness of wild-type TTP promoter (WT) to TGFβ1, luciferase [2] | binding of RNAPII proteins to the TTP locus [3] | acetylation of histones H3 and H4 at TRR (region a) [4] | binding of phospho-SMAD2/3 to TRR [5] | c-Myc level ([6]; PLC/PRF/5 cells, TGFβ1 0-2.5 hours) | c-Myc level decrease ([6]; SK-Hep1 cells, TGFβ1 without AzadC) | cell growth [7] | size of the G2/M population following TGFβ1 treatment ([8]; PLC/PRF/5 control cells (control shRNA)) | half-life of c-Myc mRNA ([9]; in the presence of actinomycin D, control 24 min) [min] | c-Myc mRNA degradation after TGFβ1 treatment ([9]; shRNA-mediated knock-down of TTP) | growth inhibitory effect of TGFβ [10] | growth rate [10] | size of the G2/M population following TGFβ1 treatment ([8]; PLC/PRF/5 TTP knock-down cells) | relative size of the G1 and sub G1 populations [8, 12] | relative size of the S phase population [8, 12]
1 | TGFβ1: Transforming growth factor beta 1, a multifunctional cytokine (R&D systems) | 1 | ≤ 30 | not induced | not responsive | significantly increased the binding of RNAPII proteins | significantly increased | TGFβ1-dependent binding of phospho-SMAD2/3 to TRR was observed | rapidly decreased from 1 hour after TGFβ1 treatment | not in SK-Hep1 cells | phenotypic growth inhibition | decreased significantly |  |  |  |  |  |  | 
2 | TTP knock-down: Lentiviral-based short hairpin RNA against TTP (Sigma-Aldrich), SEQ. ID. NO. 40, transfected into PLC/PRF/5 cells (CCGGGCTTCGCCAGAGCATCAGCTTCTCGAGAAGCTGATGCTCTGGCGAAGCTTTTT; expressed or natural sequence) |  |  |  |  |  |  |  |  |  |  |  | 51 | significantly retarded c-Myc mRNA degradation | blocking the growth inhibitory effect of TGFβ | elevated the growth rate | remained unchanged | decreased | increased
